“And” between values parts separate entries of the source, which are not always exact repeats. Identical values can stand only once.
What was measured:
[1] = test system: SK-Hep-1 liver cancer cell line; test: MTT analysis, anticancer activity; format: cell-based, human; conditions: 48 hr
Procedure: (§2) To be specific, SK-Hep-1 cell, which is liver cancer cell line, was added to 96-well microplate (Falcon, USA) with the concentration of 3×10^5 cells/ml by 100 μl per well. Each extracted and separated substance dissolved in DMSO was added to the well by 100 μl for the final concentration to be from 50 μg/ml to 0.0244 μg/ml, with 200 μl of final volume. Each cell was cultured for 48 hr in a culture medium of 37° C. and 5% CO2. After cultivation, 20 μl of phosphate buffer solution containing 5 mg/ml of MTT (3-[4,5-dimethylthiazol-2-yl]-2,5-diphenyltetrazoliumbromide, Sigma Co.) reagent was added to each well, and then cultured for 4 hr. After taking 100 μl of supernant from each culture medium, 100 μl of 0.04N hydrochloric acid-isopropanol was added. After letting alone overnight, absorbance was measured at 560 nm using automatic Eliza detector (Molecular Divices Corp., USA). Anticancer activity of each extracted and separated substance was calculated from the absorbance value by Equation 1 and was expressed in terms of cell.
(§3) Average Existence Rate(%)=(Absorbance of Treated Group)/(Absorbance of Control Group)×100

[2] = test system: PC-3 prostate cancer cell line; test: MTT analysis, anticancer activity; format: cell-based, human; conditions: 48 hr
[3] = test system: DU-145 prostate cancer cell line; test: MTT analysis, anticancer activity; format: cell-based, human; conditions: 48 hr
Procedure: as §2, §3

BT-20 = test: MTT analysis, anticancer activity; format: cell-based, human; conditions: 48 hr
BT-549 = test: MTT analysis, anticancer activity; format: cell-based, human; conditions: MTT, 48 hr
HS-578T = test: MTT analysis, anticancer activity; format: cell-based, human; conditions: MTT, 48 hr
MCF-7 = test: MTT analysis, anticancer activity; format: cell-based, human; conditions: MTT, 48 hr
SK-BR-3 = test: MTT analysis, anticancer activity; format: cell-based, human; conditions: 48 hr
T-47D = test: MTT analysis, anticancer activity; format: cell-based, human; conditions: 48 hr
HeLa = test: MTT analysis, anticancer activity; format: cell-based, human; conditions: 48 hr
ME-180 = test: MTT analysis, anticancer activity; format: cell-based, human; conditions: MTT, 48 hr
HT-29 = test: MTT analysis, anticancer activity; format: cell-based, human; conditions: MTT, 48 hr
LoVo = test: MTT analysis, anticancer activity; format: cell-based, human; conditions: MTT, 48 hr
SK-N-SH = test: MTT analysis, anticancer activity; format: cell-based, human; conditions: 48 hr
T98G = test: MTT analysis, anticancer activity; format: cell-based, human; conditions: 48 hr
HS-746T = test: MTT analysis, anticancer activity; format: cell-based, human; conditions: MTT, 48 hr
KATO-III = test: MTT analysis, anticancer activity; format: cell-based, human; conditions: MTT, 48 hr
A431 = test: MTT analysis, anticancer activity; format: cell-based, human; conditions: 48 hr
Hep-2 [4] = test: MTT analysis, anticancer activity; format: cell-based, human; conditions: MTT, 48 hr
HT1080 = test: MTT analysis, anticancer activity; format: cell-based, human; conditions: 48 hr
NCI-H69 = test: MTT analysis, anticancer activity; format: cell-based, human; conditions: MTT, 48 hr
SK-MEL-28 [5] = test: MTT analysis, anticancer activity; format: cell-based, human; conditions: 48 hr
SK-OV-3 = test: MTT analysis, anticancer activity; format: cell-based, human; conditions: MTT, 48 hr
HS683 = test: MTT analysis, anticancer activity; format: cell-based, human; conditions: 48 hr
293 = test: MTT analysis, cytotoxicity against normal cell line; format: cell-based, human; conditions: MTT, 48 hr
3T3-L1 = test: as above; format: cell-based, mouse; conditions: MTT, 48 hr
CHO = test: as above; format: cell-based, Chinese hamster; conditions: MTT, 48 hr
CPAE = test: as above; format: cell-based, bovine; conditions: MTT, 48 hr
HS27 = test: as above; format: cell-based, human; conditions: MTT, 48 hr
NIH-3T3 [6] = test: as above; format: cell-based, mouse; conditions: MTT, 48 hr
SK-Hep-1 [7] = test: Adhesion of cancer cell to Matri-Gel; format: cell-based, human
Procedure: (§1) After treating HNP-98701 on tissue culture plate coated with the matrices, cancer cell was attached thereupon. To be specific, 50 μl/ml of […], 2 μg/ml of laminin, 2 μg/ml of collagen and 2 μg/ml of gelatin were coated on the surface of 96-well microplate (Corning Co.) per well. After solidifying for 2 hr, HNP-98701 was added to each well and treated for 1 hr. […] After treating the substances for 1 hr, cancer cell was added to each cell, and it was cultured for 3 hr. […] After culturing these cell lines for 3 hr, they were centrifuged. After collecting biomass only, it was washed with distilled water or PBS buffer solution for three times. […] Then, absorbance was measured at 560-405 nm with automatic Eliza detector (Molecular […] Corp., USA). […] Each experiment was performed for three times repeatedly.

NIH-3T3 [8] = test: Adhesion of cell to Matri-Gel; format: cell-based, mouse
Procedure: as §1

Hep-2 [9] = test: Adhesion of cancer cell to Laminin; format: cell-based, human
Procedure: as §1

SK-Hep-1 [10] = test: Adhesion of cancer cell to Laminin; format: cell-based, human
Procedure: as §1

SK-MEL-28 [11] = test: Adhesion of cancer cell to Laminin; format: cell-based, human
Procedure: as §1

NIH-3T3 [12] = test: Adhesion of cell to Laminin; format: cell-based, mouse
Procedure: as §1

Hep-2 [13] = test: Adhesion of cancer cell to Collagen; format: cell-based, human
Procedure: as §1

SK-Hep-1 [14] = test: Adhesion of cancer cell to Collagen; format: cell-based, human
Procedure: as §1

SK-MEL-28 [15] = test: Adhesion of cancer cell to Collagen; format: cell-based, human
Procedure: as §1

NIH-3T3 [16] = test: Adhesion of cell to Collagen; format: cell-based, mouse
Procedure: as §1

Hep-2 [17] = test: Adhesion of cancer cell to Gelatin; format: cell-based, human
Procedure: as §1

SK-Hep-1 [18] = test: Adhesion of cancer cell to Gelatin; format: cell-based, human
Procedure: as §1

SK-MEL-28 [19] = test: Adhesion of cancer cell to Gelatin; format: cell-based, human
Procedure: as §1

NIH-3T3 [20] = test: Adhesion of cell to Gelatin; format: cell-based, mouse
Procedure: as §1

N.N.[Cl][Pt][Cl] [Cisplatin]
IC50 SK-Hep-1 [1]: 5.4350 µg/mL and 4.2950 µg/mL
IC50 PC-3 [2]: 2.4867 µg/mL
IC50 DU-145 [3]: 3.0012 µg/mL
IC50 BT-20 (BT-20): 1.4578 µg/mL
IC50 BT-549 (BT-549): 1.2522 µg/mL
IC50 HS-578T (HS-578T): 2.3317 µg/mL
IC50 MCF-7 (MCF-7): 2.9412 µg/mL
IC50 SK-BR-3 (SK-BR-3): 1.1748 µg/mL
IC50 T-47D (T-47D): 2.0468 µg/mL
IC50 HeLa (HeLa): 5.3358 µg/mL
IC50 ME-180 (ME-180): 0.9365 μg/ml
IC50 HT-29 (HT-29): 6.1224 µg/mL
IC50 LoVo (LoVo): 0.7318 µg/mL
IC50 SK-N-SH (SK-N-SH): 2.1178 µg/mL
IC50 T98G (T98G): 7.9216 µg/mL
IC50 HS-746T (HS-746T): 2.7680 µg/mL
IC50 KATO-III (KATO-III): 2.2875 µg/mL
IC50 A431 (A431): 0.4240 µg/mL
IC50 Hep-2 (Hep-2 [4]): 0.5518 µg/mL
IC50 HT1080 (HT1080): 2.9512 µg/mL
IC50 NCI-H69 (NCI-H69): 0.6382 µg/mL
IC50 SK-MEL-28 (SK-MEL-28 [5]): 4.3157 µg/mL
IC50 SK-OV-3 (SK-OV-3): 5.3442 µg/mL
IC50 HS683 (HS683): 0.2490 µg/mL
IC50 293 293: 1.1678 µg/mL
IC50 3T3-L1 (3T3-L1): 2.7096 µg/mL
IC50 CHO (CHO): 2.8462 µg/mL
IC50 CPAE (CPAE): 0.8252 µg/mL
IC50 HS27 (HS27): 1.7853 µg/mL
IC50 NIH-3T3 (NIH-3T3 [6]): 1.9756 µg/mL
Adhesion SK-Hep-1 (%) (SK-Hep-1 [7]; 0.5 μg/ml): 96.41%
Adhesion SK-Hep-1 (%) (SK-Hep-1 [7]; 5 μg/ml): 105.27%
Adhesion SK-Hep-1 (%) (SK-Hep-1 [7]; 50 μg/ml): 108.26%
Adhesion NIH-3T3 (%) (NIH-3T3 [8]; 0.5 μg/ml): 105.67%
Adhesion NIH-3T3 (%) (NIH-3T3 [8]; 5 μg/ml): 102.40%
Adhesion NIH-3T3 (%) (NIH-3T3 [8]; 50 μg/ml): 101.06%
Adhesion Hep-2 (%) (Hep-2 [9]; 0.5 μg/ml): 102.63%
Adhesion Hep-2 (%) (Hep-2 [9]; 5 μg/ml): 101.25%
Adhesion Hep-2 (%) (Hep-2 [9]; 50 μg/ml): 95.87%
Adhesion SK-Hep-1 (%) (SK-Hep-1 [10]; 0.5 μg/ml): 95.65%
Adhesion SK-Hep-1 (%) (SK-Hep-1 [10]; 5 μg/ml): 93.53%
Adhesion SK-Hep-1 (%) (SK-Hep-1 [10]; 50 μg/ml): 88.74%
Adhesion SK-MEL-28 (%) (SK-MEL-28 [11]; 0.5 μg/ml): 110.19%
Adhesion SK-MEL-28 (%) (SK-MEL-28 [11]; 5 μg/ml): 105.36%
Adhesion SK-MEL-28 (%) (SK-MEL-28 [11]; 50 μg/ml): 101.16%
Adhesion NIH-3T3 (%) (NIH-3T3 [12]; 0.5 μg/ml): 93.86%
Adhesion NIH-3T3 (%) (NIH-3T3 [12]; 5 μg/ml): 94.94%
Adhesion NIH-3T3 (%) (NIH-3T3 [12]; 50 μg/ml): 92.45%
Adhesion Hep-2 (%) (Hep-2 [13]; 0.5 μg/ml): 92.23%
Adhesion Hep-2 (%) (Hep-2 [13]; 5 μg/ml): 89.35%
Adhesion Hep-2 (%) (Hep-2 [13]; 50 μg/ml): 82.83%
Adhesion SK-Hep-1 (%) (SK-Hep-1 [14]; 0.5 μg/ml): 104.22%
Adhesion SK-Hep-1 (%) (SK-Hep-1 [14]; 5 μg/ml): 104.57%
Adhesion SK-Hep-1 (%) (SK-Hep-1 [14]; 50 μg/ml): 95.90%
Adhesion SK-MEL-28 (%) (SK-MEL-28 [15]; 0.5 μg/ml): 98.46%
Adhesion SK-MEL-28 (%) (SK-MEL-28 [15]; 5 μg/ml): 106.83%
Adhesion SK-MEL-28 (%) (SK-MEL-28 [15]; 50 μg/ml): 117.62%
Adhesion NIH-3T3 (%) (NIH-3T3 [16]; 0.5 μg/ml): 112.51%
Adhesion NIH-3T3 (%) (NIH-3T3 [16]; 5 μg/ml): 108.91%
Adhesion NIH-3T3 (%) (NIH-3T3 [16]; 50 μg/ml): 98.94%
Adhesion Hep-2 (%) (Hep-2 [17]; 0.5 μg/ml): 97.20%
Adhesion Hep-2 (%) (Hep-2 [17]; 5 μg/ml): 100.13%
Adhesion Hep-2 (%) (Hep-2 [17]; 50 μg/ml): 91.07%
Adhesion SK-Hep-1 (%) (SK-Hep-1 [18]; 0.5 μg/ml): 79.16%
Adhesion SK-Hep-1 (%) (SK-Hep-1 [18]; 5 μg/ml): 74.84%
Adhesion SK-Hep-1 (%) (SK-Hep-1 [18]; 50 μg/ml): 61.25%
Adhesion SK-MEL-28 (%) (SK-MEL-28 [19]; 0.5 μg/ml): 92.48%
Adhesion SK-MEL-28 (%) (SK-MEL-28 [19]; 5 μg/ml): 91.13%
Adhesion SK-MEL-28 (%) (SK-MEL-28 [19]; 50 μg/ml): 86.40%
Adhesion NIH-3T3 (%) (NIH-3T3 [20]; 0.5 μg/ml): 111.43%
Adhesion NIH-3T3 (%) (NIH-3T3 [20]; 5 μg/ml): 110.48%
Adhesion NIH-3T3 (%) (NIH-3T3 [20]; 50 μg/ml): 100.10%

— patent US20040024055A1, “Pharmaceutical composition containing the exract of saururus chinensis baill useful as an anticancer agent and a process for the preparation thereof” (priority 2000, published 2004)
